In patent US6054464A (priority 1996, dated 2000):

Biological target: α7 nAChR subtype (Rattus norvegicus, UniProt Q05941)
Type: binding

Chain of α7 nAChR subtype (Q05941 23-502 limits assumed): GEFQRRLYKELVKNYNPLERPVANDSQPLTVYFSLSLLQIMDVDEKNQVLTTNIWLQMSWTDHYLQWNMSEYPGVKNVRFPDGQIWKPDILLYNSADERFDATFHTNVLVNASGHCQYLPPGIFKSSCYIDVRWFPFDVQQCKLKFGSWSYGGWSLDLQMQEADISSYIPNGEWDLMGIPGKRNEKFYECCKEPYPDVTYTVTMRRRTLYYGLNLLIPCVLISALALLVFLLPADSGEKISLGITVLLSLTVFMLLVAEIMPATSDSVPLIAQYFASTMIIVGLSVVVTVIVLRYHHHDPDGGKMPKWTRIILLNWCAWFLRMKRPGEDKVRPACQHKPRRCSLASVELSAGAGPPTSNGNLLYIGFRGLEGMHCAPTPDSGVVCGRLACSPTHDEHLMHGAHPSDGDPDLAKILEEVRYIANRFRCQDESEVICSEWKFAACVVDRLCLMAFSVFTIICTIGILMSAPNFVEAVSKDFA

Substance “[^125 I]-α-Bungarotoxin [[^125 I]-α-BTX]” has a Kd of 1.67 nM.
